According to the supplement of paper PMC10307832:

Experiments:
Test in all cases: relative viability (nuclei count vs DMSO), 5 days (fraction); higher = more cells survive
IMD-0354 + Decitabine = compound: O=C(Nc1cc(C(F)(F)F)cc(C(F)(F)F)c1)c1cc(Cl)ccc1O [IMD-0354] + Nc1ncn([C@H]2C[C@H](O)[C@@H](CO)O2)c(=O)n1 [Decitabine] (partner 2 µM)
Procedure, shortened: (§1)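 Lung cancer cell lines were pin-tool dosed in 1536-well plates on the day after seeding, with either a lone drug or a fixed anchor-drug dose plus five library-drug doses (not always all listed) in √10 steps. Nuclei were counted on 4× images after 5 days. Relative viability is the ratio of treated-well to vehicle-well nuclei counts, with each value a median of duplicate plates.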

CX-5461 + Linsitinib = compound: Cc1cnc(CNC(=O)c2c(=O)c3ccc(N4CCCN(C)CC4)nc3n3c2sc2ccccc23)cn1 [CX-5461] + C[C@]1(O)C[C@@H](c2nc(-c3ccc4ccc(-c5ccccc5)nc4c3)c3c(N)nccn32)C1 [Linsitinib] (partner 1 µM)
Procedure, shortened: as §1

IMD-0354 + Palbociclib = compound: O=C(Nc1cc(C(F)(F)F)cc(C(F)(F)F)c1)c1cc(Cl)ccc1O [IMD-0354] + CC(=O)c1c(C)c2cnc(Nc3ccc(N4CCNCC4)cn3)nc2n(C2CCCC2)c1=O [Palbociclib] (partner 0.5 µM)
Procedure, shortened: as §1

CX-5461 + Crizotinib = compound: Cc1cnc(CNC(=O)c2c(=O)c3ccc(N4CCCN(C)CC4)nc3n3c2sc2ccccc23)cn1 [CX-5461] + C[C@@H](Oc1cc(-c2cnn(C3CCNCC3)c2)cnc1N)c1c(Cl)ccc(F)c1Cl [Crizotinib] (partner 1 µM)
Procedure, shortened: as §1

Cell Line	relative viability (IMD-0354 + Decitabine; first compound 0.04 µM)	relative viability (IMD-0354 + Decitabine; first compound 0.1265 µM)	relative viability (IMD-0354 + Decitabine; first compound 0.4 µM)	relative viability (IMD-0354 + Decitabine; first compound 1.265 µM)	relative viability (IMD-0354 + Decitabine; first compound 4 µM)	relative viability (CX-5461 + Linsitinib; first compound 0.01 µM)	relative viability (CX-5461 + Linsitinib; first compound 0.03162 µM)	relative viability (CX-5461 + Linsitinib; first compound 0.1 µM)	relative viability (CX-5461 + Linsitinib; first compound 0.3162 µM)	relative viability (CX-5461 + Linsitinib; first compound 1 µM)	relative viability (IMD-0354 + Palbociclib; first compound 0.04 µM)	relative viability (IMD-0354 + Palbociclib; first compound 0.1265 µM)	relative viability (IMD-0354 + Palbociclib; first compound 0.4 µM)	relative viability (IMD-0354 + Palbociclib; first compound 1.265 µM)	relative viability (IMD-0354 + Palbociclib; first compound 4 µM)	relative viability (CX-5461 + Crizotinib; first compound 0.01 µM)	relative viability (CX-5461 + Crizotinib; first compound 0.03162 µM)	relative viability (CX-5461 + Crizotinib; first compound 0.1 µM)	relative viability (CX-5461 + Crizotinib; first compound 0.3162 µM)	relative viability (CX-5461 + Crizotinib; first compound 1 µM)
NCI-H3122	0.46	0.455	0.408	0.469	0.227	0.99	1.05	0.994	1.1	0.973	0.18	0.185	0.213	0.163	0.135	0.299	0.267	0.284	0.255	0.282
PC-3 [JPC-3]	0.984	0.813	0.756	0.481	0.336	0.937	0.885	0.933	0.936	0.918	0.633	0.578	0.496	0.363	0.282	0.987	0.996	0.969	0.952	0.926
PC-14	0.249	0.22	0.142	0.0934	0.0785	0.954	0.992	1.03	0.987	0.878	0.574	0.533	0.317	0.129	0.189	1.02	1.05	0.957	0.863	0.91
RERF-LC-KJ	0.901	0.64	0.493	0.183	0.166	0.834	0.944	0.972	0.866	0.797	1.29	1.1	0.776	0.642	0.19	0.807	0.562	0.833	0.774	0.778
SK-LU-1	0.775	0.657	0.441	0.264	0.328	1.31	1.11	0.945	0.921	0.497	0.398	0.394	0.319	0.239	0.296	0.95	1.01	0.837	0.891	0.51
SK-MES-1	0.387	0.386	0.306	0.176	0.205	1.16	1.12	1.1	1.11	0.999	0.337	0.286	0.317	0.232	0.221	0.969	1.14	1.01	0.958	0.948
SW 1573	0.814	0.588	0.245	0.115	0.0911	0.782	0.84	0.977	0.828	0.907	0.533	0.315	0.237	0.147	0.121	0.806	0.817	0.889	0.633	0.657
